Measured values taken from patent US7439415B2, “Population of Hoxb8 mutants and uses in identifying agents for treating repetitive behaviors” (priority 2001, dated 2008).
Structures can show the parent of a compound that is named as a salt.

Test system: Hoxb8 mutant animals
Experiment: Fluoxetine treatment of Hoxb8 mutant mice with excessive grooming (induced grooming assay / hair regrowth)
Assay type: in vivo, mouse
Conditions: 10 mg/kg/day via Alzet mini-osmotic pumps, thirty days of treatment

`CNCCC(Oc1ccc(C(F)(F)F)cc1)c1ccccc1` (stereo not shown) [Flu, Fluoxetine-HCl] was tested, and the “hair regrowth / efficacy against excessive grooming behavior” value was “exhibited signs of hair regrowth”.
